Laboratory results from patent US20260183302A1, “PDK1 REGULATORY COMPOUND AND COMPOSITION CONTAINING THE SAME” (PROVIBIO CO., LTD., priority 2024, published 2026).
“Also recorded” adds a separate entry of the source.

Columns and labels:
[1] = tested on: PDK1 phosphorylation in SU-DHL-8 cells; experiment: PDK1 phosphorylation inhibition by flow cytometry (pPDK1-PE) in SU-DHL-8 cells; format: cell-based, human; settings: SU-DHL-8, 24 hours, vs control group, listed as GO48
Protocol: After stabilizing the cells, the compound of the present invention was added, and the cells were cultured for 24 hours.
After drug treatment, the cells were harvested, and the Fc receptor blocking process was performed. The cells were then fixed and permeabilized using the Intracellular Staining Kit (Cat. No. BD554715) from BD Biosciences. Subsequently, the intracellular pPDK1 was stained using the pPDK1-PE fluorescently labeled antibody (BD Biosciences).
Referring to the figure, the vertical axis represents the phosphorylation level of PDK1 (phospho-PDK1 expression level), and the horizontal axis denotes the concentration-dependent treatment conditions of each compound.

[2] = tested on: MRL/lpr mice with hair loss in the facial region; experiment: Hair loss treatment and hair follicle Ki-67 IHC in MRL/lpr mice; format: in vivo; settings: 41-week-old female MRL/lpr; GO15F (30 mg/kg), GO48 (1 mg/kg), GO88 (0.5 mg/kg) intraperitoneal once daily
Protocol: Additionally, in 41-week-old female MRL/Ipr mice, the compounds GO15F (30 mg/kg), GO48 (1 mg/kg), and GO88 (0.5 mg/kg) were administered intraperitoneally once daily.
To confirm the proliferative activity of hair follicle cells in the skin tissue of these mice, the mice were sacrificed 14 days after administration of the compounds of the present invention, and Ki-67 immunohistochemistry (IHC) was performed.
For this purpose, the excised skin tissue was fixed in formalin, embedded in paraffin blocks, and stained with a Ki-67-specific antibody on tissue sections prepared as slides.

psoriasis-induced mice = experiment: In vivo psoriasis model (Aldara cream, Imiquimod); design: species or system BALB/c mice
Protocol: To verify the therapeutic effect of the compound according to the present invention on psoriasis, a psoriasis animal model was established as follows, and the compound according to the present invention was administered to evaluate the alleviation of skin lesions and changes in immune cell patterns.
For the establishment of the psoriasis animal model, BALB/c mice (7 weeks old, female, 20 g) were purchased from HanabioTech Co., Ltd. and acclimatized to the rearing environment for one week.
Subsequently, the hair on the mouse back was shaved using a hair removal device for the first time, and then completely shaved using a depilatory cream (Nicrin Cream (80% thioglycolic acid, Il Dong Pharmaceutical)) for the second time. The mice were then kept for 24 hours to confirm the absence of skin damage.
To verify the psoriasis prevention and therapeutic effects of the compounds according to the present invention, the following experimental groups were established:
[Normal control group (Normal, Not Treatment), psoriasis-induced control group (Psoriasis, Not Treatment), psoriasis-induced vehicle control group (Psoriasis, Vehicle), experimental group (GO85, GO86, GO88, GO89, PBK-2024-010, PBK-2024-026, PBK-2025-002, PBK-2025-004, PBK-2025-016, PBK-2025-017, PBK-2025-023)]. […]
Body weights of mice in each group were measured on days 1, 4, and 8 after the start of injection and psoriasis induction. […]
To evaluate the therapeutic effect in a psoriasis-induced mouse model, the PASI (Psoriasis Area and Severity Index) score was measured.
The PASI score is based on three criteria: erythema, scaling, and skin thickness, each scored from 0 (none) to 4 (severe). […]
Observations were conducted daily at the same time, and the same observer visually assessed each criterion and recorded the scores, with the results presented in FIG. 13. […]
All samples were measured in duplicate, and the absorbance was measured at 450 nm using a microplate reader.

[3] = tested on: HCT-116 colon cancer cell lines; experiment: Matrigel Invasion Assay on HCT-116 colon cancer cell line; format: cell-based, human; settings: HCT-116, Matrigel, 24 hours treatment, vs DMSO
Protocol: To evaluate the metastasis inhibitory efficacy of the compounds of the present invention on HCT-116 colon cancer cell lines, an Invasion Assay using Matrigel was performed to assess the cells' invasion ability.
First, Matrigel was thawed on ice in RPMI-1640 medium without FBS, then diluted with DMEM at a ratio of 1:20.
The diluted Matrigel mixture was applied to the upper chamber at 100 μl per well, and 750 μl of RPMI-1640 without FBS was added to the lower chamber.
The plates were then incubated at 37° C. for 1 hour to allow the Matrigel to solidify.
After coating, the Matrigel mixture in the upper chamber was removed using a pipette, and the chamber was washed with RPMI without FBS.
Human-derived colorectal cancer cell line HCT-116, obtained from the Korean Cell Bank, was cultured in RPMI-1640 medium containing 10% FBS.
Following stabilization, the cells were harvested using Trypsin-EDTA treatment, centrifuged at 1,200 rpm for 3 minutes, the supernatant was removed, and the cells were resuspended in the same medium, the medium in the lower chamber was replaced with 750 μl of RPMI-1640 supplemented with 10% FBS, and the cells were seeded into the upper chamber at a density of 5×10^4 cells/well.
The cells were cultured for 24 hours after attachment, and then the compounds according to the present invention (G078, G085, G086, G088, G089, PBK-2024-010, PBK-2025-010, PBK-2025-013, PBK-2025-016) and the control substance DMSO were diluted and added to the upper chamber after removing the medium.
Additionally, the medium in the lower chamber was replaced with fresh RPMI-1640 containing FBS, and the culture was continued.
After an additional 24 hours, the medium was removed, and 1 ml of methanol was added for 10 minutes to fix the cells.
Subsequently, 1 ml of Hematoxylin was added and reacted for 5 minutes, followed by 1 ml of Eosin, which was reacted for 30 seconds. The sample was then washed with distilled water (DW).
After staining was complete, any remaining cells in the upper chamber were removed. Finally, the infiltrated cells were observed under a microscope, photographed, and the degree of infiltration was analyzed.

| SMILES | phospho-PDK1 expression level [1] | hair growth on the facial region [2] | efficacy in improving dermatological symptoms (psoriasis-induced mice) | number of infiltrated cells (invasion) [3] |
| --- | --- | --- | --- | --- |
| Nc1ncccc1C(=O)NCCCCCCCCCCCCN1CCOCC1 [Compound 2, 2-amino-N-(12-morpholin-4-yl-dodecyl)-nicotinamide] | stronger PDK1 inhibition; also recorded: high inhibitory effects even at low concentrations | hair growth was confirmed |  |  |
| Nc1nc(NC(=O)CCCCCCCCCCCCN2CCN(CCO)CC2)nc2nc[nH]c12 [Compound 15, 12-[4-(2-hydroxyethyl)piperazin-1-yl]dodecyl-N-(6-aminopurine-2-yl) carboxamide] |  |  | excellent efficacy in improving dermatological symptoms | reduction in the number of infiltrated cells |
